Consider six substances from publication PMC3855394, “Bright Fluorescence Monitoring System Utilizing Zoanthus sp. Green Fluorescent Protein (ZsGreen) for Human G-Protein-Coupled Receptor Signaling in Microbial Yeast Cells” (PLoS ONE, 2013).

In assay [1] the test system is human neurotensin receptor subtype-1 (hNTSR1). Nature of the assay: GPCR signaling assay using membrane-tethered peptide ligands, hNTSR1. Particulars: strain IMFD-72ZsD, pGK421-NTSR1, flow cytometry; for fold increase in fluorescence intensity compared with α-factor: after 24 h cultivation, pH-adjusted SD medium, mean of 10,000 cells, n = 3; for rank order of ZsGreen fluorescence: membrane-tethered peptides, 24 h. The class given is cell-based. As to the method: (§1) The cultured cells were washed and suspended in distilled water. The cell suspensions were observed using a BZ-9000 fluorescence microscope (Keyence, Osaka, Japan). Green fluorescence images were acquired with a 470/40 band-pass filter for excitation and a 535/50 band-pass filter for emission. Digital image intensities of green fluorescence were carried out, from four experiments each, with the ImageJ software (freely downloadable from the ImageJ website, http://rsbweb.nih.gov/ij/) and expressed as Integrated Density (IntDen) or its percent.
(§2) Flow cytometry measurements of green fluorescence followed previous procedures. In brief, GFP was detected using a BD FACSCanto II flow cytometer equipped with a 488-nm blue laser (Becton, Dickinson and Company, Franklin Lakes, NJ, USA); the data were analyzed using BD FACSDiva software (v5.0; Becton, Dickinson and Company). The GFP fluorescence signal was collected through a 530/30 nm band-pass filter and the GFP-A mean of 10,000 cells was defined as ‘green fluorescence intensity’.
GPCR signaling assays using membrane-tethered peptide ligands basically followed a previous procedure with some modifications. In brief, to assay signal activation from human GPCRs, yeast strains harboring the pGK421-based GPCR expression plasmids and pGK426-based peptide display plasmids were grown in SD medium (supplemented as needed) at 30 °C overnight, then the cells then were inoculated into 5 mL of the respective fresh SDM71 medium to give an initial OD600 = 0.1. The cells were incubated at 30 °C on a rotary shaker at 150 rpm, then the yeast cells were observed using a fluorescence microscope, diluted with 1 ml of sheath fluid, and fluorescence was analyzed by flow cytometry.
Data were analyzed using KaleidaGraph4.0. Statistical significance of the differences between more than two groups was calculated by one-way ANOVA, followed by Tukey’s post test. Z’ factor, a commonly used parameter reflecting the robustness and the quality of assays, was determined as follows: Z’ factor = 1 ‒ 3(SDpositive control + SDnegative control)/ (meanpositive control ‒ meannegative control), where “SD” represents standard deviation of multiple replicates of an assay.

For assay [2] the following is noted: cited from earlier work. The source says: Studies on the structure-activity relationship of neurotensin verified that positive charges at positions 8 and 9 are important but not prerequisite for its bioactivity. There is charge complementarity between NTS8–13 and its binding pocket: the positively- ...
Assay [3] deals with human neurotensin receptor subtype-1 (hNTSR1). Briefly: GPCR signaling assay with exogenously added ligand, hNTSR1. The format is cell-based. Particulars: 4 h; for fold higher fluorescence than in the absence of agonist / fold increase in fluorescence intensity in response to agonist stimulation: pGK421-NTSR1, with vs without 10 μM NTS, 30 °C, pH 7.1 SD medium, flow cytometry, mean of 10,000 cells, n = 3. As to the method: as §1, §2
(§3) GPCR signaling assays with exogenously added ligands basically followed previous procedures. In brief, to assay signal activation from human GPCRs, yeast strains harboring the pGK421-based plasmids were grown in SD medium (supplemented as needed) at 30 °C overnight, then the cells then were inoculated into 5 mL of the respective fresh SD medium to give an initial OD600 = 0.03. The cells were incubated at 30 °C on a rotary shaker at 150 rpm for up to 18 h and harvested, washed, and resuspended in water to give an OD600 = 10. […] The plates were incubated at 30 °C with shaking (150 rpm) for 4 h, then the yeast cells were observed using a fluorescence microscope, diluted with 1 mL of sheath fluid, and fluorescence was analyzed by flow cytometry.

Assay [4] has the same test system. Nature of the assay: Quantitative digital image analysis of ZsGreen fluorescence (microscopy, ImageJ), hNTSR1. The class given is cell-based. The conditions noted are these: strain IMFD-72ZsD, pGK421-NTSR1; NTS at several concentrations, 4 h; 100 cells, n = 4. As to the method:
as §1, §3

For assay [5], the system named is human somatostatin receptor subtype-2 (hSSTR2). Briefly: GPCR signaling assay with exogenously added ligand, hSSTR2. The class given is cell-based. The conditions noted are these: 4 h; for fold higher fluorescence on agonist addition / fold increase in fluorescence intensity on agonist stimulation: pGK421-SSTR2, with vs without 10 μM SST, 30 °C, pH 7.1 SD medium, flow cytometry, mean of 10,000 cells, n = 3. As to the method: as §1, §2, §3

Assay [6] relates to human somatostatin receptor subtype-5 (hSSTR5). Briefly: GPCR signaling assay with exogenously added ligand, hSSTR5 (FIG1-promoter GFP reporter yeast). Particulars: 4 h; for fluorescence microscopy observation: 10 μM SST; for fold increase in fluorescence on agonist addition / fold increase in fluorescence intensity in response to agonist stimulation: pGK421-SSTR5, with vs without 10 μM SST, 30 °C, pH 7.1 SD medium, flow cytometry, mean of 10,000 cells, n = 3. The class given is cell-based. As to the method: as §1, §2, §3

The mark [7] stands for this setting: strain IMFD-70ZsD (ZsGreen, Gpa1p).
Setting [8] is: strain IMFD-72ZsD (ZsGreen, Gi3tp).

A value given as a limit tells only on which side of the number the result lay.

On to “KIPYIL [NMN, NMN–Flag–Flo42 in pGK426; membrane-tethered neuromedin N]”, for which, in assay [1], the “fold increase in fluorescence intensity compared with α-factor” value is given as above 1.5 fold and the “rank order of ZsGreen fluorescence” value was “NTS8–13 > NTS > NMN > α-factor”.

For the substance “KIPYIL [neuromedin N, neurotensin-like peptide, KIPYIL (cited from literature)]”, the biological activity result in assay [2] is on record as “very weak biological activity”.

In the case of “RRPYIL [NTS8–13, NTS 8-13 -Flag–Flo42 in pGK426; membrane-tethered NTS8–13]”, in assay [1], the “fold increase in fluorescence intensity compared with α-factor” value was “greater than 35 fold” and the “rank order of ZsGreen fluorescence” value is “NTS8–13 > NTS > NMN > α-factor”.

“RRPYIL [Neurotensin-(8-13), pharmacophore of neurotensin, RRPYIL (cited from literature)]”: the “potency and efficacy versus full-length NTS” value in assay [2] was “higher potency and efficacy than full-length NTS”.

With neurotensin [NTS], in assay [3] (hNTSR1-expressing IMFD-72ZsD, 10 μM NTS, 40× and 100× objective), the fluorescence microscopy observation entry is “clearly exhibited changes in green fluorescence and morphology”. The “fold higher fluorescence than in the absence of agonist” value is recorded as 1.3 fold in assay [3] (strain IMFD-70 (EGFP, Gpa1p)) and 2.3 fold in assay [3] (strain IMFD-72 (EGFP, Gi3tp)). For the same substance, the entries for the “fold increase in fluorescence intensity in response to agonist stimulation” value in assay [3] (setting [7]) and in assay [3] (setting [8]) were 7.9 fold and 45 fold, respectively. For the same substance, the “digital intensity of green fluorescence (IntDen), concentration dependence” value in assay [4] is on record as “varied in a NTS-dependent manner”.

Turning to somatostatin [SST], the fluorescence microscopy observation result is “clearly exhibited changes in green fluorescence and morphology” in assay [5] (hSSTR2-expressing IMFD-72ZsD, 10 μM SST, 40× and 100× objective); “exhibited changes in green fluorescence and morphology” in assay [6] (hSSTR5-expressing IMFD-70ZsD and IMFD-72ZsD (ZsGreen), 40× and 100× objective); “the fluorescence was too weak to allow observation with a fluorescence microscope” in assay [6] (hSSTR5-expressing IMFD-70 and IMFD-72 (EGFP)). In addition, the “fold higher fluorescence on agonist addition” value is on record as 3.0 fold in assay [5] (strain IMFD-70 (EGFP, Gpa1p)) and 4.6 fold in assay [5] (strain IMFD-72 (EGFP, Gi3tp)). For the same substance, the “fold increase in fluorescence intensity on agonist stimulation” value in assay [5] (setting [7]) stood at 36 fold; in assay [5] (setting [8]), 81 fold. In addition, the “fold increase in fluorescence on agonist addition” value in assay [6] (strain IMFD-70 (EGFP, Gpa1p)) worked out at 3.9 fold; in assay [6] (strain IMFD-72 (EGFP, Gi3tp)) it was 5.6 fold. Moreover, the “fold increase in fluorescence intensity in response to agonist stimulation” value was 33 fold in assay [6] (strain IMFD-70Zs (single ZsGreen substitution, Gpa1p)); 83 fold in assay [6] (strain IMFD-70ZsD (double ZsGreen substitution, Gpa1p)); 65 fold in assay [6] (strain IMFD-72Zs (single ZsGreen substitution, Gi3tp)); 104 fold in assay [6] (strain IMFD-72ZsD (double ZsGreen substitution, Gi3tp)).
